System: B-100 apolipoprotein
Assay: Relative electrophoretic mobility of oxidized LDL on agarose gel (surface-negative charge of B-100 apolipoprotein)
Format: biochemical, human
Settings: 10 μM; for REM (%) at 180': 180 minutes; for REM (%) at 180' / REM (%) at 360': native LDL = 0, copper-oxidized LDL with ethanol at 360 minutes = 100; for REM (%) at 360': 360 minutes
Text: The determination of the melting point has been carried out by means of a capillary melting point apparatus Electrothermal, without any correction. The I.R. spectrum has been obtained by means of a Perkin-Elmer rood. 963/G spectrophotometer generally, when not otherwise specified, preparing the specimen in potassium bromide and recording the spectrum between 4000 and 600 nm. […] The mass spectrum has been recorded by using a VG 7070E mass spectrometer, at a 70 eV ionization voltage and with a 6 Kvolt acceleration voltage. […] Chem., 43, 2923, (1978). […] The antioxidant activity has been evaluated through the capability of some lactones of formula I to prevent and/or delay the oxidative modification of the lipoproteins (LDL), caused by a chemical method by incubating native LDL with cupric ions, according to the method described by Steinbrecher U. P. in J. Biol. Chem., 262, 3603-3608, (1987). The evaluation of the oxidation degree of the LDL through the monitoring of the concentration of aldehydes derived from the degradation of the lipidic peroxides and the observation of the modifications of the B-100 apolipoprotein represent the used experimental approach. The antioxidant activity of the lactones has been expressed in terms of duration of the latency period that represents a parameter of the resistance to the oxidation of the LDL. The LDL have been isolated from the human plasma obtained from blood collected, in the presence of EDTA, from healty volunteers fasting from 8 hours according to the method described by Havel H. in J. Clin. Invest., 34, 1345-1353, (1955). The solution, dialyzed in Visking-Serva dialysis tubes at 4° C. for 72 hours in phosphate buffer (PBS) added with EDTA (0.24 mM), has been filtered through a membrane with 0.45μ porosity (Millex HV Filters) and the proteic concentration has been determined according to the method described by Lowry O. et al. in J. Biol. Chem., 193, 265-275, (1951). The solution has been diluted with PBS-EDTA at a concentration of 500 μg protein/ml and the obtained LDL have been incubated at 42° C. for 45 minutes in presence of the lactones solubilized in ethanol (1.7 μl/ml LDL). At the end of the incubation the solutions have been placed on ice for 45 minutes and dialyzed at 4° C. for 36 hours in PBS. The oxidation of the LDL has been carried out with 5 μM cupric sulfate at 37° C. and stopped at the experimental times by cooling at 4° C. and adding 0.24 mM of EDTA. The solutions of LDL have been kept at 4° C. and sheltered from light during the experimental procedure. […] 52, (1978).
The inhibition of the oxidative process has also been qualitatively studied through the evaluation of the modification of the surface-negative charge of the B-100 apolipoprotein by electrophoretic analysis on agarose gel, by using the method described in the kit "Titan gel Multi-slot lipo-17 electrophoresis system" (Cat. no. 3095), manufactured by Helena Laboratories.
The Bio-Phoresis Horizontal Electrophoresis Cell Bio-Rad (Cat. no. 1702900) has been used as electrophoretic cell. The modification of the surface-negative charge of the B-100 apolipoprotein, caused by the oxidation of the LDL, produces an increase of the anionic electrophoretic mobility. Therefore the evaluation of the varying of this electrophoretic datum, mobility in presence of antioxidant substances, represents an indirect measure of the antioxidant capabilities of the claimed compounds as reported by Vanderyse L. et al. in Atherosclerosis, 97, 187-199, (1992). […] The migration of the native LDL is taken as a reference equal to 0 (no electrophoretic migration), while the migration of the band of the copper-oxidized LDL at the time of 360 minutes, only in presence of ethanol, is taken as reference equal to 100.

| Compound | lowering of electrophoretic mobility of LDL compared with probucol | REM (%) at 180' | REM (%) at 360' |
| --- | --- | --- | --- |
| Cc1c(C)c2c(c(C)c1O)CCC(C)OC(=O)C(C)(C)CCCO2 (centres unmarked) [Example 3, 6,6,9,13,15,16-Hexamethyl-14-hydroxy-2,8-dioxabicyclo[10.4.0]hexadec-12,14,16-trien-7-one] | remarkably more effective than probucol | 15% | 30% |
| CCC1CCc2c(C)c(O)c(C)c(C)c2OCCCC(C)(C)C(=O)O1 (centres unmarked) [Example 6, 9-Ethyl-14-hydroxy-6,6,13,15,16-pentamethyl-2,8-dioxabicyclo[10.4.0]hexadec-12,14,16-trien-7-one] | remarkably more effective than probucol | 15% | 30% |
| CC(C)(Sc1cc(C(C)(C)C)c(O)c(C(C)(C)C)c1)Sc1cc(C(C)(C)C)c(O)c(C(C)(C)C)c1 [Probucol, reference compound] | – | 40% | 100% |

— US5608084A, “Lactones with antioxidising and hypolipidaemic activity useful in the therapy of the atherosclerosis” (priority 1994, dated 1997)
